Measurements reported in ChEMBL document CHEMBL1140646, “Design of a partial PPARdelta agonist” (Bioorg Med Chem Lett, 2007).

Tests used:
[1] = target: T1, Peroxisome proliferator-activated receptor alpha (Homo sapiens) (UniProt Q07869); assay: Agonist activity at human PPARalpha by transactivation assay relative to NNC61-4655; type: functional
T1 sequence (whole entry): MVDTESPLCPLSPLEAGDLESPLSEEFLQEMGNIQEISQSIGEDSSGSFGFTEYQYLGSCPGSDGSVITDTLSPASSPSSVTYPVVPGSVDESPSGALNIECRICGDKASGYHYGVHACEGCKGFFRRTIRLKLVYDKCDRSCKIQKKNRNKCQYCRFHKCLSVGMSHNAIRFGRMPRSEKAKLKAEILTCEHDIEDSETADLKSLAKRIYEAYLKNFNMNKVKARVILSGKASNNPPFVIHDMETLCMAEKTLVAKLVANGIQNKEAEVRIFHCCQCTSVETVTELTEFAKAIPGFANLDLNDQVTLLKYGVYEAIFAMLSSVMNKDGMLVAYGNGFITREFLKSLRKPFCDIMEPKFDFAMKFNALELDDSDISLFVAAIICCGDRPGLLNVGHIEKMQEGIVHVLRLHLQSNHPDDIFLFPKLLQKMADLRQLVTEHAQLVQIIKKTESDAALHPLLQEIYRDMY

[2] = target: T2, Peroxisome proliferator-activated receptor delta (Homo sapiens, UniProt Q03181)
T2 sequence (Q03181 whole entry): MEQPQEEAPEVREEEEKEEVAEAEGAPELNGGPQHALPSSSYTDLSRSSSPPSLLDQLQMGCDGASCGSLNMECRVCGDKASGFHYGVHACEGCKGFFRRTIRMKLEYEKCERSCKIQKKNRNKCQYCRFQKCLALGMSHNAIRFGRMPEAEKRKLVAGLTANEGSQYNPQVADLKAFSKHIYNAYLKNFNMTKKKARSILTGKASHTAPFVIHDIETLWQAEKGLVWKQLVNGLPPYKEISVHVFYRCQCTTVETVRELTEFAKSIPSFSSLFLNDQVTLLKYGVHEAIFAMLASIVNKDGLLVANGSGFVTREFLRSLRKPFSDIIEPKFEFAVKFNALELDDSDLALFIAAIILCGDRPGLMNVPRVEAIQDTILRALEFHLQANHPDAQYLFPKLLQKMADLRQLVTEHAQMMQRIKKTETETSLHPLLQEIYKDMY

[3] = target: T3, Peroxisome proliferator-activated receptor gamma (Homo sapiens, UniProt P37231); type: functional
T3 sequence (P37231 whole entry): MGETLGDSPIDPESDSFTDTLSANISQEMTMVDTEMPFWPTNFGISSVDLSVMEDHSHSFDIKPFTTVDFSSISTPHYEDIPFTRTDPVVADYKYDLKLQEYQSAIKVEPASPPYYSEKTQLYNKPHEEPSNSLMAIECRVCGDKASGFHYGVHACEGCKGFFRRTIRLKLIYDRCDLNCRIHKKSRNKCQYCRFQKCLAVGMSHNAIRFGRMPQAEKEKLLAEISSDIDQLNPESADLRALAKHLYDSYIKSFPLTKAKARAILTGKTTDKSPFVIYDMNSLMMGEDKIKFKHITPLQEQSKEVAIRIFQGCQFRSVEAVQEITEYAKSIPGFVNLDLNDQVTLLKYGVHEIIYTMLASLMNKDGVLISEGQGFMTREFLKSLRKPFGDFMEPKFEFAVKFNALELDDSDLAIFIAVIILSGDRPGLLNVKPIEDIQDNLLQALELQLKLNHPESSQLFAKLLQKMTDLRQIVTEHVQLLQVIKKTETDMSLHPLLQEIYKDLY

[4] = target: T4, Peroxisome proliferator-activated receptor alpha (Homo sapiens, UniProt Q07869); assay: Agonist activity at human PPARalpha by transactivation assay; type: functional
T4 sequence (Q07869 whole entry): T1 sequence (whole entry)

Row | SMILES | Activity [1] [%] | EC50 [2] [nM] | EC50 [3] [nM] | EC50 [4] [nM]
1 | O=C(O)COc1ccc(Sc2cc(C#CCN3CCOCC3)nc(C#Cc3ccc(C(F)(F)F)cc3)c2)c2c1CCC2 | < 10 | 130 | – | –
2 | Cc1cc(Sc2cc(C#CCN3CCOCC3)nc(C#Cc3ccc(C(F)(F)F)cc3)c2)ccc1OCC(=O)O | 50 | 50 | 5500 | 100
3 | Cc1cc(SCc2sc(-c3ccc(C(F)(F)F)cc3)nc2C)ccc1OCC(=O)O | 68 | – | – | –
